Experimental data: patent US12539292B2, “BRM targeting compounds and associated methods of use” (Arvinas Operations, Inc., priority 2018, dated 2026)
Where two headings read alike, the source gives them in different places.

Target: T1, BRM (Homo sapiens, UniProt P51531)
T1 construct: In-Cell Western Screen of BRM Degradation in SW1573 Cells; endogenous in cells; host or cells: SW1573
Assay: In-cell Western screen of BRM degradation in SW1573 cells (Dmax and DC50)
Type: cell-based
Outline: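 SW1573 cells were treated with compound overnight (18-20 h; final DMSO 0.1%), then fixed in 4% PFA, permeabilized with Triton X-100 and blocked. BRM was detected by in-cell Western using 800 nm anti-rabbit and 680 nm anti-mouse secondaries, and Dmax and DC50 were derived from the LI-COR Odyssey signal.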

[1] = SW1573, % degraded, when tested at the top concentration of between 0.3 and 10 μM, read-out: BRM Dmax (%)
[2] = degradation of BRM, read-out: BRM DC50
[3] = BRM degradation, SW1573 cells, read-out: DC50
[4] = BRM degradation, SW1573 cells, when tested at the top concentration of between 0.3 and 10 μM, read-out: Dmax (%) (% degraded)
[5] = BRM degradation, SW1573 cells, read-out: Dmax (% degraded)

T1 sequence (P51531 whole entry): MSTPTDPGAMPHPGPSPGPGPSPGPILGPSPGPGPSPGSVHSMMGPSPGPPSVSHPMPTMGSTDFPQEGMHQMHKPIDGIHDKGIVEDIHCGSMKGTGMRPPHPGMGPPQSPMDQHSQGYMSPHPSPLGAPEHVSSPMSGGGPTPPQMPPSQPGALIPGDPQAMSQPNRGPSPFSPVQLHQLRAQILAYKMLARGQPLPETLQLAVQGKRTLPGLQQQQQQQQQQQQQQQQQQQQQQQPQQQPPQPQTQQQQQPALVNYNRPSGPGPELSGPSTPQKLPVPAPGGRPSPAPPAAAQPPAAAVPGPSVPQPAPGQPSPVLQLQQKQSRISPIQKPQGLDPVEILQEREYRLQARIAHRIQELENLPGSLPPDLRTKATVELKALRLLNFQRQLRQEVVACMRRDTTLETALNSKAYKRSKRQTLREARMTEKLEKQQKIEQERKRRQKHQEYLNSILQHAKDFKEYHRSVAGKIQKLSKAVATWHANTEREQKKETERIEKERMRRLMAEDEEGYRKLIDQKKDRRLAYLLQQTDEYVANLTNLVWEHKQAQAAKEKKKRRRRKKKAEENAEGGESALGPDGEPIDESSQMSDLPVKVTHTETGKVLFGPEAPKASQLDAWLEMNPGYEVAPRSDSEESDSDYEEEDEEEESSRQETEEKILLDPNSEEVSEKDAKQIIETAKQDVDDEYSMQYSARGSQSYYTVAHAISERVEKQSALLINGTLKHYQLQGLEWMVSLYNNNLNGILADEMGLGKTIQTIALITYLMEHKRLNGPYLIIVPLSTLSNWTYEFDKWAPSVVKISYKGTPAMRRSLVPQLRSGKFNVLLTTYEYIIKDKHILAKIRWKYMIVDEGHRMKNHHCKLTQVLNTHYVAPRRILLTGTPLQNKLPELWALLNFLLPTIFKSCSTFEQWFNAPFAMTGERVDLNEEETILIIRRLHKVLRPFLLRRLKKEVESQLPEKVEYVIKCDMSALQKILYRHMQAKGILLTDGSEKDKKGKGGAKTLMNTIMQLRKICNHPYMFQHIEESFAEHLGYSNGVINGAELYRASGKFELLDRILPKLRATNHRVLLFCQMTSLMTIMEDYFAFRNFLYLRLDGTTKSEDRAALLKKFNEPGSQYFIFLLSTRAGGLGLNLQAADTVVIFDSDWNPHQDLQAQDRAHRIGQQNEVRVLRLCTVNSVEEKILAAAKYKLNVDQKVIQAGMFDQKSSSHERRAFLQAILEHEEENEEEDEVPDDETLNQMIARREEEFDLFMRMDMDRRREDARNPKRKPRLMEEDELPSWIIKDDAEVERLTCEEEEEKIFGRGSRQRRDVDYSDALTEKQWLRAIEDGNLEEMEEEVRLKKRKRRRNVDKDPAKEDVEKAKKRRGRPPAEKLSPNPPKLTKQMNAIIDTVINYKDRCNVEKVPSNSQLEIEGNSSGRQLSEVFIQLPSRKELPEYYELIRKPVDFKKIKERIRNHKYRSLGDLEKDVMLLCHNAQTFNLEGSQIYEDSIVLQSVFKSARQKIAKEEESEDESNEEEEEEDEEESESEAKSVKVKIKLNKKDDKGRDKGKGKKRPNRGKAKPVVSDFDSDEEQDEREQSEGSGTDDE

| Structure (SMILES) | DC50 [3] | Dmax [4] | also measured |
| --- | --- | --- | --- |
| CC(C)[C@@H](C(=O)N1C[C@H](O)C[C@H]1C(=O)N[C@@H](C)c1ccc(-c2scnc2N)cc1)c1cc(OCCN2CCC(O[C@H]3C[C@H](Oc4cc(N5C6CCC5CN(c5cc(-c7ccccc7O)nnc5N)C6)ccn4)C3)CC2)no1 [compound 416, (2S,4R)-1-((2R)-2-(3-(2-(4-((1r,3R)-3-((4-(3-(3-amino-6-(2-hydroxyphenyl)pyridazin-4-yl)-3,8-diazabicyclo[3.2.1]octan-8-yl)pyridin-2-yl)oxy)cyclobutoxy)piperidin-1-yl)ethoxy)isoxazol-5-yl)-3-methylbutanoyl)-N-((S)-1-(4-(4-aminothiazol-5-yl)phenyl)ethyl)-4-hydroxypyrrolidine-2-carboxamide] | – | – | Dmax [1]: > 75%; DC50 [2]: < 2.5 nM |
| Cc1ncsc1-c1ccc([C@H](C)NC(=O)[C@@H]2C[C@@H](O)CN2C(=O)[C@@H](c2cc(OCCN3CCN(CCCCN4CCOC5(CCN(c6cc(-c7ccccc7O)nnc6N)CC5)C4)CC3)no2)C(C)C)cc1 [compound 91, (2S,4R)-1-((R)-2-(3-(2-(4-(4-(9-(3-amino-6-(2-hydroxyphenyl)pyridazin-4-yl)-1-oxa-4,9-diazaspiro[5.5]undecan-4-yl)butyl)piperazin-1-yl)ethoxy)isoxazol-5-yl)-3-methylbutanoyl)-4-hydroxy-N-((S)-1-(4-(4-methylthiazol-5-yl)phenyl)ethyl)pyrrolidine-2-carboxamide] | < 2.5 nM | > 75% | – |
| CC(C)[C@@H](C(=O)N1C[C@H](O)C[C@H]1C(=O)N[C@@H](C)c1ccc(C#N)cc1)c1cc(N2CCC(CN3CCC(O[C@H]4C[C@H](C#C[C@@H](C)n5cc(-c6cc(-c7ccccc7O)nnc6N)cn5)C4)CC3)CC2)no1 (single isomer, unassigned) [compound 698] | < 2.5 nM | – | Dmax [5]: > 75% |
| Cc1ncsc1-c1ccc(CNC(=O)[C@@H]2C[C@@H](O)CN2C(=O)[C@@H](c2cc(CCCOCCOCCOCCOCCn3cc(-c4cc(-c5ccccc5O)nnc4N)cn3)no2)C(C)C)cc1 [compound 26, (2S,4R)-1-[(2R)-2-[3-(1-[4-[3-amino-6-(2-hydroxyphenyl)pyridazin-4-yl]-1H-pyrazol-1-yl]-3,6,9,12-tetraoxapentadecan-15-yl)-1,2-oxazol-5-yl]-3-methylbutanoyl]-4-hydroxy-N-[[4-(4-methyl-1,3-thiazol-5-yl)phenyl]methyl]pyrrolidine-2-carboxamide] | 10 to 30 nM | > 75% | – |
| Cc1ncsc1-c1ccc([C@H](C)NC(=O)[C@@H]2C[C@@H](O)CN2C(=O)[C@@H](c2cc(N3CCC(CN4CCC(O[C@H]5C[C@H](Oc6cc(N7CCOC8(CCN(c9cc(-c%10ccccc%10O)nnc9N)CC8)C7)ccn6)C5)CC4)CC3)no2)C(C)C)cc1 [compound 716, (2S,4R)-1-((R)-2-(3-(4-((4-((1r,3r)-3-((4-(9-(3-amino-6-(2-hydroxyphenyl)pyridazin-4-yl)-1-oxa-4,9-diazaspiro[5.5]undecan-4-yl)pyridin-2-yl)oxy)cyclobutoxy)piperidin-1-yl)methyl)piperidin-1-yl)isoxazol-5-yl)-3-methylbutanoyl)-4-hydroxy-N-((S)-1-(4-(4-methylthiazol-5-yl)phenyl)ethyl)pyrrolidine-2-carboxamide] | < 2.5 nM | – | Dmax [5]: > 75% |
| Cc1ncsc1-c1ccc(CNC(=O)[C@@H]2C[C@@H](O)CN2C(=O)[C@@H](NC(=O)COCCOCCOCCOC/C=C/c2cc(N3C4CCC3CN(c3cc(-c5ccccc5O)nnc3N)C4)ccn2)C(C)(C)C)cc1 [compound 52, (2S,4R)-1-((S,E)-18-(4-(3-(3-amino-6-(2-hydroxyphenyl)pyridazin-4-yl)-3,8-diaza-bicyclo[3.2.1]octan-8-yl)pyridin-2-yl)-2-tert-butyl-4-oxo-6,9,12,15-tetraoxa-3-azaoctadec-17-en-1-oyl)-4-hydroxy-N-(4-(4-methylthiazol-5-yl)benzyl)pyrrolidine-2-carboxamide] | 10 to 30 nM | > 75% | – |
| Cc1ncsc1-c1ccc(CNC(=O)[C@@H]2C[C@@H](O)CN2C(=O)[C@H](c2cc(OCCOCCOCCCCN3CCOC4(CCN(c5cc(-c6ccccc6O)nnc5N)CC4)C3)no2)C(C)C)cc1 [compound 36, (2S,4R)-1-[(2S)-2-(3-[2-[2-(4-[9-[3-amino-6-(2-hydroxyphenyl)pyridazin-4-yl]-1-oxa-4,9-diazaspiro[5.5]undecan-4-yl]butoxy)ethoxy]ethoxy]-1,2-oxazol-5-yl)-3-methylbutanoyl]-4-hydroxy-N-[[4-(4-methyl-1,3-thiazol-5-yl)phenyl]methyl]pyrrolidine-2-carboxamide] | > 30 nM | 50 to 75% | – |
| Cc1ncsc1-c1ccc([C@H](C)NC(=O)[C@@H]2C[C@@H](O)CN2C(=O)[C@@H](c2cc(OCCN3CCC(CN4CC(Oc5cc(N6C7CCC6CN(c6cc(-c8ccccc8O)nnc6N)C7)ccn5)C4)CC3)no2)C(C)C)cc1 [compound 406, (2S,4R)-1-((2R)-2-(3-(2-(4-((3-((4-(3-(3-amino-6-(2-hydroxyphenyl)pyridazin-4-yl)-3,8-diazabicyclo[3.2.1]octan-8-yl)pyridin-2-yl)oxy)azetidin-1-yl)methyl)piperidin-1-yl)ethoxy)isoxazol-5-yl)-3-methylbutanoyl)-4-hydroxy-N-((S)-1-(4-(4-methylthiazol-5-yl)phenyl)ethyl)pyrrolidine-2-carboxamide] | – | – | DC50 [2]: > 30 nM |
| Cc1ncsc1-c1ccc([C@H](C)NC(=O)[C@@H]2C[C@@H](O)CN2C(=O)[C@@H](c2cc(N3CCC(CN4CCC(O[C@H]5C[C@H](C#C[C@H](C)n6cc(-c7cc(-c8ccccc8O)nnc7N)cn6)C5)CC4)CC3)no2)C(C)C)cc1 [compound 497, (2S,4R)-1-((R)-2-(3-(4-((4-((1S,3r)-3-((S)-3-(4-(3-amino-6-(2-hydroxyphenyl)pyridazin-4-yl)-1H-pyrazol-1-yl)but-1-yn-1-yl)cyclobutoxy)piperidin-1-yl)methyl)piperidin-1-yl)isoxazol-5-yl)-3-methylbutanoyl)-4-hydroxy-N-((S)-1-(4-(4-methylthiazol-5-yl)phenyl)ethyl)pyrrolidine-2-carboxamide] | – | – | DC50 (BRM degradation, read-out: BRM DC50): < 2.5 nM; Dmax [1]: > 75% |
| Cc1ncsc1-c1ccc([C@H](C)NC(=O)[C@@H]2C[C@@H](O)CN2C(=O)[C@@H](c2cc(N3CCC(CO[C@H]4C[C@H](Oc5cc(N6C7CCC6CN(c6cc(-c8ccccc8O)nnc6N)C7)ccn5)C4)CC3)no2)C(C)C)cc1 [compound 434, (2S,4R)-1-((2R)-2-(3-(4-(((1r,3R)-3-((4-(3-(3-amino-6-(2-hydroxyphenyl)pyridazin-4-yl)-3,8-diazabicyclo[3.2.1]octan-8-yl)pyridin-2-yl)oxy)cyclobutoxy)methyl)piperidin-1-yl)isoxazol-5-yl)-3-methylbutanoyl)-4-hydroxy-N-((S)-1-(4-(4-methylthiazol-5-yl)phenyl)ethyl)pyrrolidine-2-carboxamide] | – | – | Dmax [1]: > 75%; DC50 [2]: < 2.5 nM |
| Cc1ncsc1-c1ccc([C@H](C)NC(=O)[C@@H]2C[C@@H](O)CN2C(=O)[C@H](c2cc(CCCOCCOCCOCCn3cc(-c4cc(-c5ccccc5O)nnc4N)cn3)no2)C(C)C)cc1 [compound 196, (2S,4R)-1-((S)-2-(3-(3-(2-(2-(2-(4-(3-amino-6-(2-hydroxyphenyl)pyridazin-4-yl)-1H-pyrazol-1-yl)ethoxy)ethoxy)ethoxy)propyl)isoxazol-5-yl)-3-methylbutanoyl)-4-hydroxy-N-((S)-1-(4-(4-methylthiazol-5-yl)phenyl)ethyl)pyrrolidine-2-carboxamide] | > 30 nM | – | Dmax (BRM degradation, SW1573 cells, tested at the top concentration of between 0.3 and 10 μM, read-out: Dmax (%) (% degraded)): > 75% |
| Cc1ncsc1-c1ccc(CNC(=O)[C@@H]2C[C@@H](O)CN2C(=O)C(c2cc(OCC=Cc3ccc(OC4CC(Oc5cc(N6C7CC[C@@H]6CN(c6cc(-c8ccccc8O)nnc6N)C7)ccn5)C4)cn3)no2)C(C)C)cc1 (stereo partly drawn) [compound 56, (2S,4R)-1-(2-(3-((3-(5-((1r,3r)-3-((4-(3-(3-amino-6-(2-hydroxyphenyl)pyridazin-4-yl)-3,8-diazabicyclo[3.2.1]octan-8-yl)pyridin-2-yl)oxy)cyclobutoxy)pyridin-2-yl)allyl)oxy)isoxazol-5-yl)-3-methylbutanoyl)-4-hydroxy-N-(4-(4-methylthiazol-5-yl)benzyl)pyrrolidine-2-carboxamide] | < 2.5 nM | – | Dmax (%) (% degraded) (BRM degradation, SW1573 cells, when tested at the top concentration of between 0.3 and 10 μM): A (A > 75) |
| CC(C)[C@H](C(=O)N1C[C@H](O)C[C@H]1C(=O)N[C@@H](C)c1ccc(-c2ccnn2C)cc1)c1cc(N2CCC(CN3CCC(O[C@H]4C[C@H](Oc5cc(N6C7CCC6CN(c6cc(-c8ccccc8O)nnc6N)C7)ccn5)C4)CC3)CC2)no1 [compound 631, (2S,4R)-1-((2S)-2-(3-(4-((4-((1r,3r)-3-((4-(3-(3-amino-6-(2-hydroxyphenyl)pyridazin-4-yl)-3,8-diazabicyclo[3.2.1]octan-8-yl)pyridin-2-yl)oxy)cyclobutoxy)piperidin-1-yl)methyl)piperidin-1-yl)isoxazol-5-yl)-3-methylbutanoyl)-4-hydroxy-N-((S)-1-(4-(1-methyl-1H-pyrazol-5-yl)phenyl)ethyl)pyrrolidine-2-carboxamide] | < 2.5 nM | – | Dmax [5]: > 75% |
